Assay results published in patent US6399380B1, “Native-state histoculturing skin extracellular support” (Anti-Cancer, Inc., priority 1991, dated 2002).

Tests used:
[1] = system: histocultured mouse skin
Procedure: Samples of skin having an external surface area of about 10 mm^2 and a thickness of about one to two mm were excised from an athymic nude mouse and placed on a GELFOAM™ matrix immersed in Eagle's MEM containing about 0.2 mg/ml of gentamycin and about 10% (v/v) fetal bovine serum. Prior to use the matrix was soaked in the medium for four hours at 37° C. to equilibrate the matrix in the medium.
The skin samples were maintained on the matrix in the medium at a temperature of about 37° C. in a gassed incubator under a mixture of 95% air and 5% CO2. Viability was assessed as the uptakes of an indicator specific for viable cells (BCECF-AM) and an indicator specific for dead cells (propidium iodide, PI), or as the uptake of [^3H]-thymidine.
The fluorescent dye indicators BCECF-AM and PI (Molecular Probes, Eugene, Oreg.) were added directly to the medium at a final concentration of 5 micromolar. Incorporation of the dyes was microscopically evaluated about 30 min following addition of the dyes to the medium by optical scanning using an MRC-600 Confocal Imaging System (Bio-Rad, Richmond, Calif.) mounted on a Nikon Epithet equipped with a 10× Plane objective. Samples were observed using an optical section of about 4 microns.
Skin samples from athymic nude mice were cultured according to the method of Example 1. Viability was assessed before and after the addition of putative toxins using BCECF-AM and [^3H]-thymidine as indicators specific for viable cells and PI as an indicator specific for dead cells. The uptake of these indicators was determined according to the methods of Example 1.
An initial assessment of viability was made 2 days after initiation of the skin culture using BCECF-AM and PI. Immediately following this initial assessment, various concentrations of the toxins ethanol, doxorubicin or sodium hypochlorite were contacted with the skin samples. The final concentrations of the toxins varied from about 0.5% to about 70% (v/v) for ethanol, from about 29 to about 725 mgs/ml for doxorubicin and from about 0.6% to about 60.0% (v/v) for sodium hypochlorite.
The skin samples were contacted with ethanol, doxorubicin and sodium hypochlorite for about 5 min., for about 24 hours and for about 2 hours respectively. Following these contact times, the toxin-containing medium was replaced with fresh, non-toxin-containing medium and the skin samples reassessed for viability using BCECF-AM and PI Viability was assessed in the same region of the skin sample before and after contact with the toxin.
In this study, toxicity was expressed as a percent of killed cells. The fraction of killed cells (PI-positive cells) with respect to total cells (PI-positive (red) plus BCECF-AM-positive (green) cells) in treated cultures is measured with confocal fluorescence scanning microscopy and is compared to untreated controls to determine cytotoxicity. The percent of killed cells is expressed as the number of red cells after treatment minus the number of red cells before treatment, divided by the total number of cells (green cells after treatment plus red cells after treatment).
The effects of doxorubicin and sodium hypochlorite on skin toxicity were determined in an identical manner to that described above for ethanol.

[2] = system: dermal, epidermal and follicle cells of histocultured mouse skin; assay: Skin toxicity assay: [3H]-thymidine uptake (percent cell proliferation), autoradiography; format: cell-based; conditions: FIG. 6
Procedure: [^3H]-Thymidine was added directly to the medium at a final concentration of 4 μCI/ml. Skin samples were maintained in the thymidine-containing medium for 3 days. After the 3 days, the skin cultures were washed with phosphate-buffered saline, pH 7.0, placed in histology capsules and fixed in 10% (v/v) formalin. The fixed skin cultures were then dehydrated, embedded in paraffin, sectioned and placed on slides by standard methods well known to those of skill in the histology art. The slides were deparaffinized, coated with Kodak NTB-2 emulsion, exposed for 5 days and developed. […]
In addition, skin samples contacted with doxorubicin were assessed for viability using the uptake of [^3H]-thymidine measured after 24 hr of toxin contact.
In this study, toxicity was expressed as percent cell proliferation. Percent cell proliferation was calculated as the ratio of, (1) percentage of cells labeled with [^3H]-thymidine to total cells in doxorubicin treated samples compared to (2) the percentage of [^3H]-thymidine labeled cells to total cells in control, untreated skin samples.

[3] = system: dorsal skin of mice; conditions: mouse, in vivo
Procedure: The in vivo assessment of toxicity was determined using a standard skin irritation test as set forth below.
Small pieces of gauze paper (about 1.5 cm^2 size), which have been soaked in different concentrations of sodium hypochlorite, were tightly put on 3 different sites on the dorsal surface of the mice. Skin sites were scored on a 1 to 4 scale for […] and edema ½ hour and 1 hour after removal of the sodium hypochlorite. The primary irritation index (PII) for each concentration of sodium hypochlorite was derived from the following formula: […]

## COc1cccc2c1C(=O)c1c(O)c3c(c(O)c1C2=O)C[C@@](O)(C(=O)CO)C[C@@H]3O[C@H]1C[C@H](N)[C@H](O)[C@H](C)O1 [doxorubicin]
[1]; doxorubicin about 29 to about 725 mgs/ml, 24 hours, FIG. 5
  toxicity (percent of killed cells) as a function of concentration: relatively proportional to the concentration of doxorubicin
[2]; 24 hour exposure to doxorubicin
  percent cell proliferation ([3H]-thymidine labeled cells relative to control): dose-dependent decrease in cell proliferation
[2]; 24 hour exposure, dermal, epidermal and follicle cells compared
  cell type in which toxicity was most pronounced: most pronounced in hair follicle cells

## CCO [ethanol]
[1]; 0.5% (v/v) or 5.0% ethanol, about 5 min, skin histocultured 2 days, FIG. 3
  viability of skin sample after vs before treatment (live/dead staining): a large number of cells died
[1]; 5.0% vs 0.5% ethanol, about 5 min, FIG. 3
  relative toxicity (loss in viability): more toxic (a greater loss in viability) than was 0.5% ethanol
[1]; 30%, 50% and 70% ethanol, data not shown
  loss of viability: increasing losses of viability above the extent of losses observed using 5% ethanol
[1]; ethanol about 0.5% to about 70% (v/v), 5 minutes, skin histocultured two days, FIG. 4
  percent of killed cells (toxicity) as a function of concentration: increases as the concentration of ethanol increases

## OCl [sodium hypochlorite]
[1]; athymic nude, mouse
  threshold of toxicity (percent of killed cells): about 0.6%
[3]
  threshold of toxicity (primary irritation index): about 0.6%
